{"source": "patent US20110251135A1", "about": "“INHIBITORS OF PERITONEAL SEEDING OF CANCER CELLS” (University of Utah Research Foundation, priority 2008, published 2011)", "key": {"[1]": {"system": "transiently suspended DLD-1 cells", "experiment": "Apoptosis of transiently suspended cells during readhesion (annexin V assay)", "format": "cell-based, human", "conditions": "DLD-1 transiently suspended, treated and allowed to readhere; 8 hours", "procedure": "(§1) The transiently suspended cells were lysed and allowed to bind to DNA oligonucleotides, containing the NF-κB consensus binding site, that were immobilized to 96-well plates. NF-κB protein bound to the oligonucleotides was detected by an antibody to the p65 subunit that only recognized p65 that is bound to DNA. The positive control was HeLa cells that were stimulated with TNFα. A control was performed using excess free NF-κB oligonucleotides (Competitor). […] NF-κB binding activity was determined by the TransAM assay as in FIG. 5A. […] The data shown represent typical results of three separate experiments. […] An immunoblot for COX-2 was performed.\n(§2) Single cell suspensions were plated at 100,000 cells per well in 24-well plates in media containing DMSO, BAY 11-7082, BAY 11-7085, or MG-132 for 8-24 hours in an incubator. Alternatively, DMSO, BAY 11-7082, BAY 11-7085, or MG-132 were added to cells that were confluent and adherent for several days. The nonadherent cells were aspirated off with the media and spun for 3 minutes at 2,000 rpm in 15 mL polypropylene tubes. […] 400 μL of binding buffer was added to each tube and the cells were analyzed by flow cytometry immediately. The percent of apoptosis was determined as the percent of annexin V-positive, propidium iodide-negative cells of the total cells counted. […]"}, "[2]": {"system": "transiently suspended HCT-116 cells", "experiment": "Apoptosis of transiently suspended cells during readhesion (annexin V assay)", "format": "cell-based, human", "conditions": "HCT-116 transiently suspended, treated and allowed to readhere; 8 hours", "procedure": "as §1, §2"}, "[3]": {"system": "HT-29 cells", "experiment": "Intraabdominal seeding model, intraperitoneal injection of colon cancer cells into athymic mice (21 days)", "format": "in vivo, mouse", "conditions": "HT-29 IP in athymic mice, BAY 11-7085 (1 mg/kg) IP 24 hours earlier, then twice weekly, n = 6", "text": "FIG. 6 is a group of photographs showing an intraabdominal seeding model. FIGS. 6A, B, C show tumor implants of the liver of three athymic mice 21 days after receiving intraperitoneal injections of HT-29 cells. The mice were pretreated and treated for a total of 21 days with DMSO twice weekly. […] The mouse was pretreated and treated for a total of 21 days with DMSO twice weekly. FIG. 6E is a micrograph showing tumor invasion through the liver capsule. This section was obtained from the tumor implant from the mouse in FIG. 6A. […] FIG. 6G, (liver), FIG. 6H, (abdominal wall), and FIG. 6I, (intestinal) show tumor implants in three athymic mice 21 days after receiving intraabdominal injections of HCT-116 cells. All of the mice were treated with 5 mg/kg of BAY 11-7085 twice weekly.\nHT-29 and HCT-116 cells were harvested in 0.25% trypsin-PBS-EDTA, washed once in media and PBS, and resuspended in PBS at 1 million cells per 200 μL. […] Subcutaneous tumor sizes were determined by measuring the length and width with calipers. […]\nDuring colorectal cancer surgery, seeding of the peritoneal cavity by tumor cells with tumor cell implantation of the peritoneal surfaces can occur. Seeding results from the transient suspension of cancer cells, through a loss of adhesion either naturally ro because of surgical displacement, followed by readhesion to other tissues. […]"}, "[4]": {"system": "NF-κB in HT-29 cells", "experiment": "NF-κB ELISA during readhesion", "format": "cell-based, human", "conditions": "colon and pancreatic cancer readhesion", "text": "Untreated adherent monolayers (Control) and Jurkat cells treated with TNFα (Jurkat Control) served as controls. The cells were collected and analyzed for NF-κB activation in an ELISA (see Methods). […] The floating and readherent cells were collected and lysed. Aliquots of the cell lysates were used to generate cleaved PARP immunoblots. All lanes contain equal total protein concentrations and the actin blot served as a loading control. The blots shown are typical of duplicate experiments. […] The floating cells were washed away and the adherent cells were then fixed and stained with crystal violet. The cells were lysed in deoxycholate and the intensity of the staining quantified by spectrophotometry. The results are normalized to the controls.\nNuclear lysates were generated, normalized for total protein concentration, and used to determine NF-κB activity in an ELISA kit (Panomics) per the manufacturer's instructions."}, "[5]": {"system": "IκB phosphorylation and TNFα-induced NF-κB activation", "conditions": "Pierce et al., J Biol Chem 272:21096-103, 1997; cited from earlier work"}, "[6]": {"system": "JNK/SAPK and p38", "conditions": "Pierce et al., J Biol Chem 272:21096-103, 1997; cited from earlier work"}}, "note": "Several values for one entry are separate records, joined by “and”; a condition that tells them apart may be missing. Identical values can stand only once.", "data": [{"smiles": "CC(C)(C)c1ccc(S(=O)(=O)/C=C/C#N)cc1", "note": "[BAY 11-7085, (2E)-3-[4-(tertiarybutylphenyl)sulfonyl]-2-propenenitrile]", "values": [{"measurement": "BAY 11-7085-induced apoptosis during readhesion", "setting": "[1]", "result": "showed the same propensity for BAY 11-7085-induced apoptosis"}, {"measurement": "BAY 11-7085-induced apoptosis during readhesion", "setting": "[2]", "result": "HCT-116 cells did not"}, {"measurement": "Liver Metastases (mice with metastases/n)", "setting": "[3]", "result": "none of the 6 and 0/6"}, {"measurement": "Peritoneal Metastases (mice with metastases/n)", "setting": "[3]", "result": "2 of 6 and 2/6"}, {"measurement": "NF-κB inhibitor potency on a molar basis (comparison)", "setting": "[4]", "result": "more potent NF-κB inhibitor than rosiglitazone"}, {"measurement": "IκB phosphorylation and TNFα-induced NF-κB activation", "setting": "[5]", "result": "inhibit IκB phosphorylation and TNFα-induced NF-κB activation"}, {"measurement": "activation of JNK/SAPK and p38", "setting": "[6]", "result": "activate JNK/SAPK and p38"}]}]}
